Measured values: US20240009149A1, “NON-AQUEOUS GEL COMPOSITION” (Acousia Therapeutics GmbH, priority 2020, published 2024)
One block for each compound: values may come before it.

Experiments:
Assay type in all cases: physicochemical
[1] = solubility in water at room temperature; conditions: for Biopharmaceutics Classification System class: classified from low water solubility; for solubility: water, 24 °C, 22-26° C.
[2] = impurity profile by HPLC prior and after gamma irradiation
[3] = Particle Size Distribution (Malvern MasterSizer, laser diffraction)
Experimental: The mean particle size distribution is preferably obtained by laser diffraction. During a laser diffraction measurement a laser beam passes through a dispersed particulate sample and the angular variation in intensity of the scattered light is measured. Large particles scatter light at small angles relative to the laser beam and small particles scatter light at large angles. The angular scattering intensity data is then analyzed to calculate the size of the particles that created the scattering pattern using the Mie theory of light scattering. The particle size is reported as a volume equivalent sphere diameter. The folded optical design in the Mastersizer 3000 (from Malvern Panalytical), which was in particular used for the measurements provides a particle size measurement range from 10 nm up to 3.5 mm using a single optical measurement path. The Mastersizer 3000 uses a sequential combination of measurements with red and blue light sources to measure across the entire particle size range.
In some embodiments, the PSD (Particle Size Distribution) of the pharmaceutically active agent was measured with a Malvern MasterSizer 2000 or 3000 (in water as dispersion medium, stirrer speed 1500 rpm, Mie presentation) to give the following results (table 11). […] Some of the grinded batches are reported with the full PSD profile in FIG. 5: […]

[4] = Gamma irradiated at 49.6 KGy under dry ice
[5] = FIG. 5 lower illustration, micronized sample, jet mill
[6] = FIG. 5 middle illustration, manual grinded sample
[7] = FIG. 5 upper illustration, manual grinded sample

- Biopharmaceutics Classification System class [1]: BCS class II
- solubility [1]: < 1 mg/mL
SMILES: O=C(NCc1cccc(S(F)(F)(F)(F)F)c1)[C@H]1C[C@@H]2CC[C@H]1C2 (racemic) [Compound A, (1SR,2SR,4RS)-N-(3-(pentafluoro-λ6-sulfanyl)benzyl)bicyclo[2.2.1]heptane-2-carboxamide]

- Biopharmaceutics Classification System class [1]: BCS class II
- solubility [1]: < 1 mg/mL
- *Imp. 8. rel.tR = 0.95 ([2]; Gamma irradiated at 49.6 KGy): 3.29 Area %
- Imp. 1. rel.tR = 0.22 ([2]; Gamma irradiated at 49.6 KGy): 0.11 Area %
- Imp. 2. rel.tR = 0.37 ([2]; Gamma irradiated at 49.6 KGy): 0.11 Area %
- Imp. 3. rel.tR = 0.48 ([2]; Gamma irradiated at 49.6 KGy): 0.24 Area %
- Imp. 4. rel.tR = 0.52 ([2]; Gamma irradiated at 49.6 KGy): 0.12 Area %
- Imp. 5. rel.tR = 0.54 ([2]; Gamma irradiated at 49.6 KGy): 0.08 Area %
- Imp. 6. rel.tR = 0.58 ([2]; Gamma irradiated at 49.6 KGy): 0.14 Area %
- Imp. 7. rel.tR = 0.71 ([2]; Gamma irradiated at 49.6 KGy): 0.39 Area %
- Imp. 9. rel.tR = 1.27 ([2]; Gamma irradiated at 49.6 KGy): 0.32 Area %
- Imp. 10. rel.tR = 1.80 ([2]; Gamma irradiated at 49.6 KGy): 0.06 Area %
- Sum of impurities ([2]; Gamma irradiated at 49.6 KGy): 4.86 Area %
- impurity Increase compared to initial ([2]; Gamma irradiated at 49.6 KGy): +1.25 Area %
- *Imp. 8. rel.tR = 0.95 [2, 4]: 3.35 Area %
- Imp. 1. rel.tR = 0.22 [2, 4]: 0.23 Area %
- Imp. 2. rel.tR = 0.37 [2, 4]: 0.03 Area %
- Imp. 3. rel.tR = 0.48 [2, 4]: 0.12 Area %
- Imp. 4. rel.tR = 0.52 [2, 4]: 0.12 Area %
- Imp. 5. rel.tR = 0.54 [2, 4]: 0.05 Area %
- Imp. 6. rel.tR = 0.58 [2, 4]: 0.15 Area %
- Imp. 7. rel.tR = 0.71 [2, 4]: 0.34 Area %
- Imp. 9. rel.tR = 1.27 [2, 4]: 0.20 Area %
- Sum of impurities [2, 4]: 4.59 Area %
- impurity Increase compared to initial [2, 4]: +0.98 Area %
- *Imp. 8. rel.tR = 0.95 ([2]; Initial API): 3.48 Area %
- Imp. 3. rel.tR = 0.48 ([2]; Initial API): 0.13 Area %
- Imp. 4. rel.tR = 0.52 ([2]; Initial API): <0.05 Area %
- Imp. 7. rel.tR = 0.71 ([2]; Initial API): <0.05 Area %
- Sum of impurities ([2]; Initial API): 3.61 Area %
- effect of gamma irradiation on the quality of the active ingredient ([2]; standard conditions, dry ice used for cooling): only minor effects
- d10 [3, 5]: 3.4 microns
- d50 [3, 5]: 12.4 microns
- d90 [3, 5]: 26.3 microns
- d10 [3, 6]: 6.5 microns
- d50 [3, 6]: 32 microns
- d90 [3, 6]: 72 microns
- d10 [3, 7]: 4.4 microns
- d50 [3, 7]: 18 microns
- d90 [3, 7]: 44 microns
- PSD of the active ingredient in the non-aqueous gel composition ([3]; in the gel versus after grinding): remained unchanged
SMILES: O=C(NCc1cccc(S(F)(F)(F)(F)F)c1)[C@H]1C[C@@H]2CC[C@H]1C2 [Compound B, (1S,2S,4R)-N-(3-(pentafluoro-λ6-sulfaneyl)benzyl)bicyclo[2.2.1]heptane-2-carboxamide]
